Source: paper PMC6624297 (Cell Death & Disease, 2019)

Assays:
[1] = tested on: HepG2 cells; experiment: MTT assay HepG2; type: cell-based; details: Homo sapiens, 24h of treatment, mean ± SD
Protocol: (§1) Details are given in Supplementary Materials and Methods. Using probability unit and weighted regression method to calculate the IC50 value of compounds.
(§2) Total cells in the logarithmic growth phase were collected, digested using 0.25% pancreatic enzymes, and then diluted into single-cell suspensions using phosphate-buffered solution (PBS). These cells were seeded into 96-well plates at 4× 10^3-5× 10^3 cells per well (100 µL per well) and then A549, H460, OVCAR-3, SGC7901, MDA-MB-231, HCT116 and HepG2 were cultured at 37°Cin an incubator containing 5% CO2. After cell complete attachment, 100 µL of different concentrations of compounds (0.625 μM, 1.25 μM, 2.5μM, 5 μM, 10 μM) were added to the cells after the nutrient solution in each well was discarded, while no compound except 0.1% DMSO was added to cells in the control group; at the same time, each concentration was set up to 5 wells. In addition, 5 wells in each 96-well plate only received 100 µL of nutrient solution as a blank control. The plates were taken out after the cells were incubated with compounds for 24 h, and 20 µL of MTT solution (5 mg/mL) (Wuhan Boster Biotechnology Limited Company, Wuhan, China; item No. AR1156) was added into all the wells. After another time of incubation for 4 h at 37 °C, the nutrient solution in each well was discarded slowly, and 150 µL of DMSO was added to each well. The plates were shaken on a shaking table for 20 min. When the crystals were fully dissolved, the blank wells were used to zero the plate reader. The optical density (OD) of each well was detected at 490 nm. The IC50 value was determined as the concentration of the inhibitor that caused 50% inhibition. Using probability unit and weighted regression method to calculate the IC50 value of compounds.

[2] = tested on: IOSE80 cell line; experiment: Selectivity index against IOSE80; type: cell-based; details: SI = CC50/IC50
[3] = tested on: HCoEpiC cell line; experiment: Selectivity index against HCoEpiC; type: cell-based; details: SI = CC50/IC50
[4] = tested on: SGC7901 cells; experiment: MTT assay SGC7901; type: cell-based; details: Homo sapiens, SGC-7901, 24h of treatment, mean ± SD
Protocol: as §1, §2

[5] = biological target: BRaf kinase (Homo sapiens, UniProt P15056); experiment: ADP-Glo kinase assay, BRaf; type: biochemical; details: averages from triplicate assays
Protocol: (§3) The ADP-Glo™ kinase assay (Promega, Madison, WI) was used to screen target compounds for their inhibition effects for BRaf, EGFR kinase. The kinase assay was carried out in a 96-well plate, in a volume of 25 μL HEPES (pH 7.3) solvent containing 1.6 μg/mL EGF, and 20 ng of EGFR kinase, or 50 ng BRaf kinase, and 10 μM ATP (Promega, Madison, WI). […] Reactions in each well were started immediately by adding ATP and kept going for half an hour under 30 °C in a constant temperature incubator (Bluepard, Shanghai, China). After the plate cooled for 5 min at room temperature, 25 μl of ADP-Glo reagent was added into each well to stop the reaction and consume the remaining […] within 40 min. At the end, 50 μl of kinase detection reagent was added into the well and incubated for 1 h to produce a luminescence signal.

[6] = tested on: HCT-116 cells; experiment: MTT assay HCT-116; type: cell-based; details: Homo sapiens, 24h of treatment, mean ± SD
Protocol: as §1, §2

[7] = biological target: T1, human TS (hTS) (Homo sapiens, UniProt P04818); experiment: Thymidylate synthase (TS) spectrophotometric assay; type: biochemical; details: averages from triplicate assays
T1 construct: purchased ProSpec-Tany
Protocol: Recombinant human thymidylate synthase purchased from ProSpec-Tany Company. TS was assayed spectrophotometrically at 30 °C and pH 7.4 in a mixture containing 0.1 M 2-mercaptoethanol, 0.0003 M (6R,S)-tetrahydrofolate, 0.012 M formaldehyde, 0.02 M MgCl2, 0.001 M dUMP, 0.04 M Tris–HCl, 30 nM hTS, and 0.00075 M NaEDTA. […] The reaction was initiated by the addition of an amount of enzyme yielding a change in absorbance at 340 nm of 0.016/min in the absence of inhibitor.

[8] = tested on: GES-1 cell line; experiment: Selectivity index against GES-1; type: cell-based; details: SI = CC50/IC50
[9] = tested on: MDA-MB-231 cells; experiment: MTT assay MDA-MB-231; type: cell-based; details: Homo sapiens, 24h of treatment, mean ± SD
Protocol: as §1, §2

[10] = tested on: HTB-125 cell line; experiment: Selectivity index against HTB-125; type: cell-based; details: SI = CC50/IC50
[11] = tested on: LO2 cell line; experiment: Selectivity index against LO2; type: cell-based; details: SI = CC50/IC50
[12] = tested on: OVCAR-3 cells; experiment: MTT assay OVCAR-3; type: cell-based; details: Homo sapiens, 24h of treatment, mean ± SD
Protocol: as §1, §2

[13] = tested on: SK-MES-1 cells; experiment: MTT assay SK-MES-1; type: cell-based
[14] = tested on: A549 cells; experiment: MTT assay A549; type: cell-based, human; details: Homo sapiens, A549, 24h of treatment, mean ± SD
Protocol: as §1, §2

[15] = tested on: HPAEpiC cell line; experiment: Selectivity index against HPAEpiC; type: cell-based; details: SI = CC50/IC50
[16] = biological target: EGFR kinase (Homo sapiens, UniProt P00533); experiment: ADP-Glo kinase assay, EGFR; type: biochemical; details: averages from triplicate assays
Protocol: as §3

[17] = tested on: A549 cells; experiment: Transwell migration and wound healing, A549; type: cell-based, human; details: at high doses
Protocol: Cell migration ability was measured using transwell chambers (8-μm pore size; Corning Costar, Cambridge, MA, USA). For the transwell assay, A549 and H460 cells suspended in serum-free RPMI-1640 medium containing different concentrations of L14e (0, 0.5, 1.0, and 1.5 μM) were seeded into the upper chamber. The lower chamber contained RPMI-1640 medium supplemented with 20% serum. After 24 h incubation, the filters were fixed in methanol and stained with 0.1% crystal violet. The upper faces of the filters were gently abraded, and the lower faces with cells migrated across the filters were imaged and counted under the microscope. For wound healing assays, cells were placed into 6-well plates and cultured until 100% confluence. An artificial scratch was created using a 200 μL pipette tip. Add serum-free RPMI-1640 medium containing different concentrations of drugs. At 24 h after culturing in serum-free medium, wound closure images were captured in the same field under magnification. Cell healing rates were calculated by the fraction of cell coverage across the line. These experiments were performed in triplicate and repeated three times.

[18] = tested on: FVB mice; experiment: Toxicity test in FVB mice; type: in vivo; details: mice, 3 weeks
Protocol: Blood was collected from euthanized mice under isoflurane-induced deep anesthesia by cardiac puncture. After allowing blood coagulation at 4 °C, serum was collected by centrifugation at 3000 rpm for 10 min at 4 °C. Analysis of the level of ALT, AST, Glu and CRE in the serum was performed using a veterinary hematology analyzer (Fuji DRI-Chem 3500 s, Fujifilm, Tokyo, Japan) according to the manufacturer’s provided protocols. The histopathological changes in liver, lung, brain, and kidney were evaluated by using HE-stained section of the tissues (This part of the results is in the supplementary document).
Tissues were fixed in 10% neutral-buffered formalin for 24 h, embedded in paraffin, cut into 4-μm-thick sections, deparaffinized with xylene and processed with a graded ethanol series. Next, the sections were stained with HE and were observed using Eclipse Ts2 microscope (Nikon).

T1 sequence (P04818 whole entry): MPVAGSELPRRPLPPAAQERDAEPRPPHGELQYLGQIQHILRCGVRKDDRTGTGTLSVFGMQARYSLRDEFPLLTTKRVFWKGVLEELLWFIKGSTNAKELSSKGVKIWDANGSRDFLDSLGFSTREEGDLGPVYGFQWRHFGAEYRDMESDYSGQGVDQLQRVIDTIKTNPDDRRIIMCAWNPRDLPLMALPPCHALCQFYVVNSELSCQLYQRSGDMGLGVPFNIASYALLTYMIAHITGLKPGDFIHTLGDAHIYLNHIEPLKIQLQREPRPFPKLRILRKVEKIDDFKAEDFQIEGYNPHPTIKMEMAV
BRaf kinase, sequence (P15056 whole entry): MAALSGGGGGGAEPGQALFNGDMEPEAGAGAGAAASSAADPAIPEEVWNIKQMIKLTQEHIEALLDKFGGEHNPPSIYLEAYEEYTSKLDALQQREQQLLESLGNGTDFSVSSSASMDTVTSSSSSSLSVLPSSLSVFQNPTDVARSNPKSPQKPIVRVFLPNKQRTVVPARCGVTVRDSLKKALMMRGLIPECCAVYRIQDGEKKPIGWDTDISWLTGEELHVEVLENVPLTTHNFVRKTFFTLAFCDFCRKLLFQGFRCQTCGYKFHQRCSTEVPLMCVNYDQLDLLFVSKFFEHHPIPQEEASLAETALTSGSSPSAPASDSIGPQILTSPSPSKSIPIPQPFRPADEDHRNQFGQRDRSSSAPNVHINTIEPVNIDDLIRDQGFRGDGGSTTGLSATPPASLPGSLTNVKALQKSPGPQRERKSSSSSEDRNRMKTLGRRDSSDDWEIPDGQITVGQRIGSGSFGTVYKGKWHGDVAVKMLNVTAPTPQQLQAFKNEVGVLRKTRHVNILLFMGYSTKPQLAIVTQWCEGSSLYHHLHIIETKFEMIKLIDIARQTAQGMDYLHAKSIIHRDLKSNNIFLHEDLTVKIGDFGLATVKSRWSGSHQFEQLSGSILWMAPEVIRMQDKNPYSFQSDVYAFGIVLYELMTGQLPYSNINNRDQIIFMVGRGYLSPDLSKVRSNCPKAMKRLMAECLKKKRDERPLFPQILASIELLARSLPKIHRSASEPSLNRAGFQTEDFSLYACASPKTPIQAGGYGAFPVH
EGFR kinase, sequence (P00533 25-1210): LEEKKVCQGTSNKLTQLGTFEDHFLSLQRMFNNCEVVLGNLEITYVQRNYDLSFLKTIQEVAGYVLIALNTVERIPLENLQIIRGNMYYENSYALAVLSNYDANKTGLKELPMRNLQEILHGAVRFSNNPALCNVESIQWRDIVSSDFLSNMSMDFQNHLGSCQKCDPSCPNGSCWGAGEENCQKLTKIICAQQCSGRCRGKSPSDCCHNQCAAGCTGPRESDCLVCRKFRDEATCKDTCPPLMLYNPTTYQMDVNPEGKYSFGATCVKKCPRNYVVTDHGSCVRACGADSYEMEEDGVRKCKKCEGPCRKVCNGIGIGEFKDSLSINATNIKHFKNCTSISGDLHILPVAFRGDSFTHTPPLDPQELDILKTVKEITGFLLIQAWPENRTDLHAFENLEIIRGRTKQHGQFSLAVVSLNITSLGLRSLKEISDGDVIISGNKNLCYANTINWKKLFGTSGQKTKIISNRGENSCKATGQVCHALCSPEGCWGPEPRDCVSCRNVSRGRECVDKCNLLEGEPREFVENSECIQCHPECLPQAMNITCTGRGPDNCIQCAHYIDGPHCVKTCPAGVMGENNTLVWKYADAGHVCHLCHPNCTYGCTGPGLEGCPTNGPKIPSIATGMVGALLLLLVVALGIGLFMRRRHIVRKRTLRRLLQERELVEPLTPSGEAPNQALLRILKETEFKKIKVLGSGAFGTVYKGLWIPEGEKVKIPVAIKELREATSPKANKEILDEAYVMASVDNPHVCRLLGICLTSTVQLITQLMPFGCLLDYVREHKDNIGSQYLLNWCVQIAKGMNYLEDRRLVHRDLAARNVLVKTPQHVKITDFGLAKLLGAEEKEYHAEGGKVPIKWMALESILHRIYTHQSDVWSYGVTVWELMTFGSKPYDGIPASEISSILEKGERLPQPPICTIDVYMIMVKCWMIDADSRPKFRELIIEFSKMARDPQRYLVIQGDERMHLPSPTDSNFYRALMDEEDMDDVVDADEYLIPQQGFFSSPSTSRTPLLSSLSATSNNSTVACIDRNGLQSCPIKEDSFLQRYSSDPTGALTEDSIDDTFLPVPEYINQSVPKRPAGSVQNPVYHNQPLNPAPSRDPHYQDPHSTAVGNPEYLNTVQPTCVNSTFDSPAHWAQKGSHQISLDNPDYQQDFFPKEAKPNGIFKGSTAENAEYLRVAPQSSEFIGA

Row | Structure (SMILES) | IC50 [1] | SI (Selectivity index) IOSE80 [2] | SI (Selectivity index) HCoEpiC [3] | IC50 [4] | IC50 [5] | IC50 [6] | IC50 [7] | SI (Selectivity index) GES-1 [8] | IC50 [9] | SI (Selectivity index) HTB-125 [10] | SI (Selectivity index) LO2 [11] | IC50 [12] | inhibition of SK-MES-1 cells [13] | IC50 [14] | SI (Selectivity index) HPAEpiC [15] | IC50 [16] | inhibition of A549 cells migration [17] | histopathological changes in liver, lung, brain, and kidney (HE staining) [18] | melting point
1 | O=C(NNC(=O)c1ccccc1NS(=O)(=O)c1c[nH]c(=O)[nH]c1=O)c1cccc(Cl)c1 [Compound 10l, reference compound] | 7.66 ± 0.77 µM | 11.90 | 4.09 | 1.82 ± 0.08 µM | 1.67 µM | 2.27 ± 0.23 µM | 1.36 µM | 14.25 | 2.04 ± 0.37 µM | 5.26 | 12.57 | 2.08 ± 0.12 µM | did not inhibit | 1.26 ± 0.16 µM | 16.56 | 2.71 µM | could inhibit A549 cells migration at high doses |  | 
2 | Nc1nc2[nH]cc(CCc3ccc(C(=O)N[C@@H](CCC(=O)O)C(=O)O)cc3)c2c(=O)[nH]1 [PTX, pemetrexed, reference compound] |  |  |  | 6.96 ± 0.43 µM |  | 4.64 ± 0.22 µM |  |  | 4.18 ± 0.14 µM |  |  | 7.35 ± 0.6 µM | did not inhibit | 3.29 ± 0.15 µM |  |  |  | no visible pathological changes | 
3 | Cc1ccccc1NC(=O)Nc1ccc(NS(=O)(=O)c2c[nH]c(=O)[nH]c2=O)cc1 [Compound L13g, N'-(2-methylphenyl)-4-(2,4-dihydroxypyrimidine-5-sulfonamido)phenyl urea] | 9.16 ± 0.12 µM |  |  | 6.39 ± 0.19 µM | > 10 µM | 4.75 ± 0.07 µM | 9.25 µM |  | > 10 µM |  |  | 2.68 ± 0.38 µM |  | 4.68 ± 0.11 µM |  | > 10 µM |  |  | 169 to 173 °C
4 | Cc1ccc(NC(=O)Nc2ccccc2NS(=O)(=O)c2c[nH]c(=O)[nH]c2=O)cc1 [Compound L14i, N'-(4-methylphenyl)-2-(2,4-dihydroxypyrimidine-5-sulfonamido)phenylurea] | 5.72 ± 0.21 µM |  |  | 5.13 ± 0.44 µM | 5.45 µM | 5.62 ± 0.61 µM | 6.98 µM |  | 7.3 ± 0.1 µM |  |  | > 10 µM |  | 1.37 ± 0.45 µM |  | > 10 µM |  |  | 165 to 169 °C
5 | O=C(Nc1ccc(Cl)cc1)Nc1cccc(NS(=O)(=O)c2c[nH]c(=O)[nH]c2=O)c1 [Compound L15f, N'-(4-chlorophenyl)-3-(2,4-dihydroxypyrimidine-5-sulfonamido)phenylurea] | 3.07 ± 0.29 µM |  |  | 4.28 ± 0.67 µM | 2.68 µM | 7.61 ± 0.04 µM | 1.55 µM |  | 3.2 ± 0.62 µM |  |  | 1.49 ± 0.28 µM |  | 1.01 ± 0.11 µM |  | 5.54 µM |  |  | 169 to 171 °C
